Data on three molecules can be found in ChEMBL document CHEMBL2429821, “A Casein kinase 1/Checkpoint kinase 1 pyrazolo-pyridine protein kinase inhibitor as novel activator of the p53 pathway” (Bioorg Med Chem Lett, 2013).

For assay [1], the target named is Ribosomal protein S6 kinase alpha-5 (Homo sapiens) (UniProt O75582). As to the kind of experiment: Inhibition of human MSK1 assessed as residual activity at 1 uM relative to control.
Assay [2] concerns the target Serine/threonine-protein kinase Nek6 (Homo sapiens) (UniProt Q9HC98). Put plainly: Inhibition of human NEK6 assessed as residual activity at 1 uM relative to control.
The target of assay [3] is Serine/threonine-protein kinase N2 (Homo sapiens) (UniProt Q16513). Put plainly: Inhibition of human PRK2 assessed as residual activity at 10 uM relative to control.
Sequence of Serine/threonine-protein kinase N2 (Homo sapiens) (Q16513 whole entry, looked up): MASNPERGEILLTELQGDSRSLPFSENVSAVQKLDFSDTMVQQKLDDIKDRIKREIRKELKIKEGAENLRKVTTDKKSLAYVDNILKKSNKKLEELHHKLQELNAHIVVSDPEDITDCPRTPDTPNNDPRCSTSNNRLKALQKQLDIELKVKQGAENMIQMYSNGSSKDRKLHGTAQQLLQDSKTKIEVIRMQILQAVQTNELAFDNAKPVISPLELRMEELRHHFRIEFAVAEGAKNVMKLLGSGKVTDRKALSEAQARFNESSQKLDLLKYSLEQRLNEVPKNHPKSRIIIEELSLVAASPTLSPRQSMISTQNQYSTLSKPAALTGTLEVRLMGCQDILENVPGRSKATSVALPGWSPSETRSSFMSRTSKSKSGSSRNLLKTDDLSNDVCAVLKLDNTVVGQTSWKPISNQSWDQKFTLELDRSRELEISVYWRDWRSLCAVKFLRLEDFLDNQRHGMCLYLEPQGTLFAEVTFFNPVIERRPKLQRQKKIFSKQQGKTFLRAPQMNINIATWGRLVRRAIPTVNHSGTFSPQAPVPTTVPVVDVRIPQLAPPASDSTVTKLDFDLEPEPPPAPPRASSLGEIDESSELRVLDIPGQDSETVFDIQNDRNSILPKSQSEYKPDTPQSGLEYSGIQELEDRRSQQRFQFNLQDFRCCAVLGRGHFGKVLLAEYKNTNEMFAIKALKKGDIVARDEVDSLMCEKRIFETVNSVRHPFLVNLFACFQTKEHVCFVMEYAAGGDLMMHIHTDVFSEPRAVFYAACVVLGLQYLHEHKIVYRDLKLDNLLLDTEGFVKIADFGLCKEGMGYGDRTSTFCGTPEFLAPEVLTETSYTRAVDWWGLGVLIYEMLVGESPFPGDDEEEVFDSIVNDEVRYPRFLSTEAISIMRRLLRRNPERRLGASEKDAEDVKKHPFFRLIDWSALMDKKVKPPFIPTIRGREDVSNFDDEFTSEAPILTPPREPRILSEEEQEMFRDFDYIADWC
Assay [4] deals with SRSF protein kinase 1 (Homo sapiens) (UniProt Q96SB4). Put plainly: Inhibition of human SRPK1 assessed as residual activity at 1 uM relative to control.
Sequence of SRSF protein kinase 1 (Homo sapiens) (Q96SB4 whole entry): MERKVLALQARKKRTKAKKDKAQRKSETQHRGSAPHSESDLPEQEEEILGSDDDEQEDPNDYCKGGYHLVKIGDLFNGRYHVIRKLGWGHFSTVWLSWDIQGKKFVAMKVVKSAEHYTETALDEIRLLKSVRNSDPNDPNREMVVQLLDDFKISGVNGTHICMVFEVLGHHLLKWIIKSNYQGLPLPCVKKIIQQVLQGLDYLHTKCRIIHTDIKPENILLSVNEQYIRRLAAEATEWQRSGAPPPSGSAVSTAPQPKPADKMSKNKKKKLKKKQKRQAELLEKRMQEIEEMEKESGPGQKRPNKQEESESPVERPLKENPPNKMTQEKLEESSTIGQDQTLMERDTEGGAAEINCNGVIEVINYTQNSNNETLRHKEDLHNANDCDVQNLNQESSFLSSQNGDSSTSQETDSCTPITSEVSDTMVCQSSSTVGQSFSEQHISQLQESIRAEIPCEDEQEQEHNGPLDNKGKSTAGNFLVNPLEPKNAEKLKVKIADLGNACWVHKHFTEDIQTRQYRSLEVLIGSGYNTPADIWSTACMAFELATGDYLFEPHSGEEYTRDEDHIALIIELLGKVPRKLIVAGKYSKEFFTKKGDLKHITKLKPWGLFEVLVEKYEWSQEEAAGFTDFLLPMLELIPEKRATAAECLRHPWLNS
The target in assay [5] is Serine/threonine-protein kinase Nek6 (Homo sapiens) (UniProt Q9HC98). Put plainly: Inhibition of human NEK6 assessed as residual activity at 10 uM relative to control.
Sequence of Serine/threonine-protein kinase Nek6 (Homo sapiens) (Q9HC98 whole entry): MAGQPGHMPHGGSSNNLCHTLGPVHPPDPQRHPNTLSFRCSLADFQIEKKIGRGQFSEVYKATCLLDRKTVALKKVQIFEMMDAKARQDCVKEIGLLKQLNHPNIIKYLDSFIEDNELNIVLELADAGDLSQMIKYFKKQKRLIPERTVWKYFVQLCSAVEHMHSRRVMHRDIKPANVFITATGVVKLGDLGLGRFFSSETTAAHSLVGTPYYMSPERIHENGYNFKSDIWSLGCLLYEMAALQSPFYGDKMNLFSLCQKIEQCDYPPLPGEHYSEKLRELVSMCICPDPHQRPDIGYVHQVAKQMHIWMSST
Assay [6] concerns the target T1, Eukaryotic elongation factor 2 kinase (Homo sapiens) (UniProt O00418).
T1 sequence (whole entry): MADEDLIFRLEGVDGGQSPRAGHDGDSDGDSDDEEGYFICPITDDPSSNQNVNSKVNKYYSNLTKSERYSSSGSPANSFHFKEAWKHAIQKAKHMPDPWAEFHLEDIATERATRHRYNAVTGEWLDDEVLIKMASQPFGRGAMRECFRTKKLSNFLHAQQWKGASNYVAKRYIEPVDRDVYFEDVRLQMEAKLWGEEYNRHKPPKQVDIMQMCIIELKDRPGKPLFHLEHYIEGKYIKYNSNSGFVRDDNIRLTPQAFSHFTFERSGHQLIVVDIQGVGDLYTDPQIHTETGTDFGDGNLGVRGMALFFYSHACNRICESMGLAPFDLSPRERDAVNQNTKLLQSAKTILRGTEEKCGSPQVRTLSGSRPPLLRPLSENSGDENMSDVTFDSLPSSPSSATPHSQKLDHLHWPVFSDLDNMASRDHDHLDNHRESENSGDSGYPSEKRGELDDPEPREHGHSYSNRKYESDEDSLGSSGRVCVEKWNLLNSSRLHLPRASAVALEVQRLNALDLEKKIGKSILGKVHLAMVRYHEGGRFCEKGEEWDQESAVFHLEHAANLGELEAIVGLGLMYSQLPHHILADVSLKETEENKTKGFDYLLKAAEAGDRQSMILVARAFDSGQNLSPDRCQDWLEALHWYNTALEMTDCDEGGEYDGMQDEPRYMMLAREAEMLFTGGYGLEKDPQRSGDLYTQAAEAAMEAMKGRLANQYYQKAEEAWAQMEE
Put plainly: Inhibition of human EF2K assessed as residual activity at 10 uM relative to control.

Assay [7] addresses Protein kinase C alpha type (Homo sapiens) (UniProt P17252). As to the kind of experiment: Inhibition of human PKCalpha assessed as residual activity at 1 uM relative to control.
The target of assay [8] is Homeodomain-interacting protein kinase 2 (Homo sapiens) (UniProt Q9H2X6). Put plainly: Inhibition of human HIPK2 assessed as residual activity at 10 uM relative to control.
Sequence of Homeodomain-interacting protein kinase 2 (Homo sapiens) (Q9H2X6 whole entry, looked up): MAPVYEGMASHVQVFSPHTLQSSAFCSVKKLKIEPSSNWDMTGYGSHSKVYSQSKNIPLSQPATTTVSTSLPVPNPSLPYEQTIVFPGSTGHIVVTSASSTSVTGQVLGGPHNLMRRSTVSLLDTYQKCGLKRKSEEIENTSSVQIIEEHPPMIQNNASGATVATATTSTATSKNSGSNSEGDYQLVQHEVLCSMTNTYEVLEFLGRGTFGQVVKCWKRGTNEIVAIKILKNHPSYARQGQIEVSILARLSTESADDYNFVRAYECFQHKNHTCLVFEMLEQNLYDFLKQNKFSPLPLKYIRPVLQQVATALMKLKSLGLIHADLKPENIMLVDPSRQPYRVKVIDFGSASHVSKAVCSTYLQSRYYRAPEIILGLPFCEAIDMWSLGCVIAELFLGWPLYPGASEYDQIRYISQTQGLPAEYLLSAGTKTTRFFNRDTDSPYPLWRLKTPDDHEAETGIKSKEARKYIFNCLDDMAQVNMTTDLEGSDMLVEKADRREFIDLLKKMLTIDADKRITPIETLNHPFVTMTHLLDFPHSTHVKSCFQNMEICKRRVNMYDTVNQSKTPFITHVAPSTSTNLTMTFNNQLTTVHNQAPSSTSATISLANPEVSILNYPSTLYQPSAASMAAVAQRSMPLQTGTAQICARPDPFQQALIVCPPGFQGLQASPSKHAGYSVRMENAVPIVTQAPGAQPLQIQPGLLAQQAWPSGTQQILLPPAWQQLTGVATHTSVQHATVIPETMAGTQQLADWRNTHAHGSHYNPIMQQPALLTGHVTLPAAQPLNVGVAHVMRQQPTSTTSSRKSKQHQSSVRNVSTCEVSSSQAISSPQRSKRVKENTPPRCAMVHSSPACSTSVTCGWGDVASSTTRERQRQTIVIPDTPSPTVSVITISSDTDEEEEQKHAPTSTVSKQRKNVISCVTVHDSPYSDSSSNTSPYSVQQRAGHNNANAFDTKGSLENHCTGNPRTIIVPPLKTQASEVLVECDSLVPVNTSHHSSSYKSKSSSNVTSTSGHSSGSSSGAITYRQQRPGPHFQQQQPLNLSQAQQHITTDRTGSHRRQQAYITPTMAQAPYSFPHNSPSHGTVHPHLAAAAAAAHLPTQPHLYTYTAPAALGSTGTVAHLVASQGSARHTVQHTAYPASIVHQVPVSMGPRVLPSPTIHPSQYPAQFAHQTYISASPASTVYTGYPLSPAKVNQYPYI
The target of assay [9] is T2, Serine/threonine-protein kinase Chk1 (Homo sapiens) (UniProt O14757).
T2 sequence (whole entry): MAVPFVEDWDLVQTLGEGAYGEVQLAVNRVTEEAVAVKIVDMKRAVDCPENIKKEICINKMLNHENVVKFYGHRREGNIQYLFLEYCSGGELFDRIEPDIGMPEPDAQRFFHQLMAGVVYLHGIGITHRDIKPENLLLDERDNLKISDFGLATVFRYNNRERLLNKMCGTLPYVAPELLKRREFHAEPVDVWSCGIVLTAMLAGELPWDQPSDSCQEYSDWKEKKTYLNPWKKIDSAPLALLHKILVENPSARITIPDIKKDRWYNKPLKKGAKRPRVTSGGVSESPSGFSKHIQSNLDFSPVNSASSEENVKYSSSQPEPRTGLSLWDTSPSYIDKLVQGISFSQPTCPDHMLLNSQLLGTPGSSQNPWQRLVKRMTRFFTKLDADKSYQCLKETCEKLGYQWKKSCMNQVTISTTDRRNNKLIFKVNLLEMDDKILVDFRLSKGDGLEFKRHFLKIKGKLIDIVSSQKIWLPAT
As to the kind of experiment: Inhibition of human CHK1 assessed as residual activity at 10 uM relative to control.

Assay [10] deals with RAC-beta serine/threonine-protein kinase (Homo sapiens) (UniProt P31751). Put plainly: Inhibition of human PKBbeta assessed as residual activity at 1 uM relative to control.
Assay [11] addresses Mitogen-activated protein kinase 8 (Homo sapiens) (UniProt P45983). Put plainly: Inhibition of human JNK1 assessed as residual activity at 10 uM relative to control.
The target of assay [12] is T3, Inhibitor of nuclear factor kappa-B kinase subunit beta (Homo sapiens) (UniProt O14920).
T3 sequence (whole entry): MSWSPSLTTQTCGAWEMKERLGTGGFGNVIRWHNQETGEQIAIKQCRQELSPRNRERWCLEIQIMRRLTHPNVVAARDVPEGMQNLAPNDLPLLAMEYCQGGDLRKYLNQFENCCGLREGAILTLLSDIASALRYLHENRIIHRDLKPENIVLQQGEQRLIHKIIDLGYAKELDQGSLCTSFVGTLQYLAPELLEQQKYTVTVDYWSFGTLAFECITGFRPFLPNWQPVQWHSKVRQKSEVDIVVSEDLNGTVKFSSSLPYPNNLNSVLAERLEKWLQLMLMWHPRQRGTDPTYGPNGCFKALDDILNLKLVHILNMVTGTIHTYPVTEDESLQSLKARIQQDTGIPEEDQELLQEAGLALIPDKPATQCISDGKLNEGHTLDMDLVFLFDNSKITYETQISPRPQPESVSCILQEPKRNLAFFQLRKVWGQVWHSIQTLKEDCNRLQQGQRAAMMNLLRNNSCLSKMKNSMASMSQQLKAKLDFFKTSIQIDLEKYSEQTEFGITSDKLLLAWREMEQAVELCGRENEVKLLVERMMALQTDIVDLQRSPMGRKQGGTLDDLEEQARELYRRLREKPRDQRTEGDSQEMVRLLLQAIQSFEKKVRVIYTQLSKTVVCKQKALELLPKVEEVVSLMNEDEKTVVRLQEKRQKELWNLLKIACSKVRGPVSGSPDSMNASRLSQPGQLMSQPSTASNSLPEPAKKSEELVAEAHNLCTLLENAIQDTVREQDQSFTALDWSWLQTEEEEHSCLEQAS
As to the kind of experiment: Inhibition of human IKKbeta assessed as residual activity at 10 uM relative to control.

Sequence of Mitogen-activated protein kinase 8 (Homo sapiens) (P45983 whole entry): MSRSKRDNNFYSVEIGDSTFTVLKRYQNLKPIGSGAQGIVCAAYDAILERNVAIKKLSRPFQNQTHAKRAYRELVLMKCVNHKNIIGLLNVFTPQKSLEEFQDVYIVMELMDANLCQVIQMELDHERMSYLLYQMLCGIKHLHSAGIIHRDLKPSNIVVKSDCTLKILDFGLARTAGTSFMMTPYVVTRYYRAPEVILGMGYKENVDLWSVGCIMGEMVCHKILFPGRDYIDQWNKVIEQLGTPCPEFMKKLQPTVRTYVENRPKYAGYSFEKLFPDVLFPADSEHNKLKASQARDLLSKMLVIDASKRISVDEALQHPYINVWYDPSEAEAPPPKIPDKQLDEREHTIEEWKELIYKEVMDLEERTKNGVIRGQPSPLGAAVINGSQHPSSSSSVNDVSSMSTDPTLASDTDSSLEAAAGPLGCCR
Sequence of Ribosomal protein S6 kinase alpha-5 (Homo sapiens) (O75582 whole entry, looked up): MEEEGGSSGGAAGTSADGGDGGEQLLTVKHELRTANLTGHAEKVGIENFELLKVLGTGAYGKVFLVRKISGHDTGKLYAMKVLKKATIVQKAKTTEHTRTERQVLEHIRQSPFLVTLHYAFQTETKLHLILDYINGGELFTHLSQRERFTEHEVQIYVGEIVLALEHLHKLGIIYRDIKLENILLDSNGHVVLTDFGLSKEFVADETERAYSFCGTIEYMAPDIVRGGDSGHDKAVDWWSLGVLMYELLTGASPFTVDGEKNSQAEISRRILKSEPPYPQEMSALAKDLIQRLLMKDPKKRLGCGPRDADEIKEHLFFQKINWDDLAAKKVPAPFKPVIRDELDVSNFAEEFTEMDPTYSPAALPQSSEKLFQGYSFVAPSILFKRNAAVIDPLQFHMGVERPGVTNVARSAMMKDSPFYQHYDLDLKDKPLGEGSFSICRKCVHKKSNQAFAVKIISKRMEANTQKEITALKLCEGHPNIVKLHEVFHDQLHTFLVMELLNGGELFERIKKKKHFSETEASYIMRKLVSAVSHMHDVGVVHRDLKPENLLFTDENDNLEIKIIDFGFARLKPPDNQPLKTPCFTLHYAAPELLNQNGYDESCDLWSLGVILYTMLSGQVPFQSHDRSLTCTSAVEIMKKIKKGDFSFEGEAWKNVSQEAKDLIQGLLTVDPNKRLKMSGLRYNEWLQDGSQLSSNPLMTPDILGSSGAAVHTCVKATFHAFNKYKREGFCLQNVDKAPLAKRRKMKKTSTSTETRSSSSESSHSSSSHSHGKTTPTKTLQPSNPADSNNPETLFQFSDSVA

As for `CC(=O)Nc1cccc(-c2cnc3[nH]nc(C)c3c2)c1`, the Activity turned out to be 95.3% in [1]; 77.3% in assay [2]; 42.2% in [3]; 95.9% in [4]; 94.3% in assay [5]; 106% in assay [6]. Also, the Activity in assay [7] amounted to 124%; in assay [8] it was 42.4%; in assay [9] it was 4.34%; in assay [10], 94.6%; in assay [11] it was 66.9%; in assay [12], 72%.

`CCCC(=O)Nc1n[nH]c2ncc(-c3cccnc3)cc12`: the Activity came to 70% in assay [1]; 86% in [2]; 76% in assay [3]; 93% in assay [4]; 90% in assay [5]; 95% in [6]. Also, the Activity in [7] is 79%; in assay [8], 31%; in assay [9], 82%; in assay [10], 94%; in [11], 92%; in assay [12], 90%.

Consider `CC(=O)Nc1nccc(-c2c(-c3ccccc3)noc2C)n1`, for which the Activity in assay [1] is 82.7%; in assay [2], 64.9%; in assay [3] it was 96.5%; in [4], 87.7%; in [5], 78.8%; in [6], 83%. Also, the Activity is 94% in [7]; 94.2% in assay [8]; 105% in assay [9]; 89.7% in assay [10]; 70.3% in [11]; 80.4% in [12].
